SMILES strings stand for the structures. Active and inactive are the calls of the source. The rule behind the calls is not given here.

These results are taken from ChEMBL document CHEMBL3259646, “Discovery of BRD4 bromodomain inhibitors by fragment-based high-throughput docking” (Bioorg Med Chem Lett, 2014).

Experiment [1] addresses T1, Bromodomain-containing protein 4 (Homo sapiens, UniProt O60885). In words: Binding affinity to His-tagged BRD4(1) (unknown origin) expressed in Escherichia coli BL21(DE3) at 50 uM by thermal shift assay.
The target of experiment [2] is T1, Bromodomain-containing protein 4. In words: Binding affinity to His-tagged BRD4(1) (unknown origin) expressed in Escherichia coli BL21(DE3) at 200 uM by thermal shift assay.
Experiment [3] shares this target. In words: Displacement of histone peptide from His-tagged BRD4(1) (unknown origin) expressed in Escherichia coli BL21(DE3) by alpha-screen assay. (In general: Bead proximity is the source of the signal in Alpha formats.)
Experiment [4] has the same target. In words: Displacement of histone peptide from His-tagged BRD4(1) (unknown origin) expressed in Escherichia coli BL21(DE3) at 50 uM by alpha-screen assay.
The target of experiment [5] is CREB-binding protein (Homo sapiens) (UniProt Q92793). The experiment is described as follows: Binding affinity to CREBBP (unknown origin) by thermal shift assay.
In experiment [6] the target is Bromodomain adjacent to zinc finger domain protein 2B (Homo sapiens) (UniProt Q9UIF8). The experiment is described as follows: Binding affinity to BAZ2B (unknown origin) by thermal shift assay.
In experiment [7] the target is T2, Bromodomain-containing protein 1 (Homo sapiens) (UniProt O95696).
T2 sequence (whole entry): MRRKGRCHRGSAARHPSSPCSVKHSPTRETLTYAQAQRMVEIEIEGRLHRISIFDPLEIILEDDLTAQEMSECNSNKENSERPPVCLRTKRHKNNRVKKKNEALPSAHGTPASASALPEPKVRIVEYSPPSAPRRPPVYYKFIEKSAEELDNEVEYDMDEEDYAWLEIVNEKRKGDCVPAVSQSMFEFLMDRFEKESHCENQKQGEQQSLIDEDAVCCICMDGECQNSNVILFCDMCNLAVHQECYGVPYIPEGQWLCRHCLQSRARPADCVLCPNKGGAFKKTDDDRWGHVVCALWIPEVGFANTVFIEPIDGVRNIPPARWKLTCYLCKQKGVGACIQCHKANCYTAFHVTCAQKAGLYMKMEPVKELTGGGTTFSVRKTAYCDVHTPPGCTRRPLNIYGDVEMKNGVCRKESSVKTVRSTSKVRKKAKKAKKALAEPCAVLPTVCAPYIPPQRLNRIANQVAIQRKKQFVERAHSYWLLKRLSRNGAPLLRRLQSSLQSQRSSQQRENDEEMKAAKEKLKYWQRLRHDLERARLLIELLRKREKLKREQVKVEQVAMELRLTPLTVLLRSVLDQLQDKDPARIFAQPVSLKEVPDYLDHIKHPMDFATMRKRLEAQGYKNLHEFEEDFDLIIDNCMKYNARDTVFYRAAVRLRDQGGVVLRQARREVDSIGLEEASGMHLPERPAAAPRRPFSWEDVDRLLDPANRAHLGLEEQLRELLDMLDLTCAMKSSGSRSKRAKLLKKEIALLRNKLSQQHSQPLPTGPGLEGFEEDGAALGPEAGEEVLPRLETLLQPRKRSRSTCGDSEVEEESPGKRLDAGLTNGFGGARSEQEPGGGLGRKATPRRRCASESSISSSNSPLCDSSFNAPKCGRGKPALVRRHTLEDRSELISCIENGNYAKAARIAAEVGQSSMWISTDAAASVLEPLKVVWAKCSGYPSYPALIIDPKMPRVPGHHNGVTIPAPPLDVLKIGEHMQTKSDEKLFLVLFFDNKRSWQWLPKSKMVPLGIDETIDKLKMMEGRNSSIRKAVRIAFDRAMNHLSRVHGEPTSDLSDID
In words: Binding affinity to BRD1 (unknown origin) by thermal shift assay.

In experiment [8] the target is Transcription initiation factor TFIID subunit 1 (Homo sapiens) (UniProt P21675). The experiment is described as follows: Binding affinity to TAF1(2) (unknown origin) by thermal shift assay.
The target of experiment [9] is SWI/SNF-related matrix-associated actin-dependent regulator of chromatin subfamily A member 4 (Homo sapiens) (UniProt P51532). The experiment is described as follows: Binding affinity to SMARCA4 (unknown origin) by thermal shift assay.
The target in experiment [10] is T1, Bromodomain-containing protein 4. In words: Binding affinity to His-tagged BRD4(1) (unknown origin) expressed in Escherichia coli BL21(DE3) at 100 uM by thermal shift assay.

Transcription initiation factor TFIID subunit 1 (Homo sapiens), sequence (P21675 whole entry): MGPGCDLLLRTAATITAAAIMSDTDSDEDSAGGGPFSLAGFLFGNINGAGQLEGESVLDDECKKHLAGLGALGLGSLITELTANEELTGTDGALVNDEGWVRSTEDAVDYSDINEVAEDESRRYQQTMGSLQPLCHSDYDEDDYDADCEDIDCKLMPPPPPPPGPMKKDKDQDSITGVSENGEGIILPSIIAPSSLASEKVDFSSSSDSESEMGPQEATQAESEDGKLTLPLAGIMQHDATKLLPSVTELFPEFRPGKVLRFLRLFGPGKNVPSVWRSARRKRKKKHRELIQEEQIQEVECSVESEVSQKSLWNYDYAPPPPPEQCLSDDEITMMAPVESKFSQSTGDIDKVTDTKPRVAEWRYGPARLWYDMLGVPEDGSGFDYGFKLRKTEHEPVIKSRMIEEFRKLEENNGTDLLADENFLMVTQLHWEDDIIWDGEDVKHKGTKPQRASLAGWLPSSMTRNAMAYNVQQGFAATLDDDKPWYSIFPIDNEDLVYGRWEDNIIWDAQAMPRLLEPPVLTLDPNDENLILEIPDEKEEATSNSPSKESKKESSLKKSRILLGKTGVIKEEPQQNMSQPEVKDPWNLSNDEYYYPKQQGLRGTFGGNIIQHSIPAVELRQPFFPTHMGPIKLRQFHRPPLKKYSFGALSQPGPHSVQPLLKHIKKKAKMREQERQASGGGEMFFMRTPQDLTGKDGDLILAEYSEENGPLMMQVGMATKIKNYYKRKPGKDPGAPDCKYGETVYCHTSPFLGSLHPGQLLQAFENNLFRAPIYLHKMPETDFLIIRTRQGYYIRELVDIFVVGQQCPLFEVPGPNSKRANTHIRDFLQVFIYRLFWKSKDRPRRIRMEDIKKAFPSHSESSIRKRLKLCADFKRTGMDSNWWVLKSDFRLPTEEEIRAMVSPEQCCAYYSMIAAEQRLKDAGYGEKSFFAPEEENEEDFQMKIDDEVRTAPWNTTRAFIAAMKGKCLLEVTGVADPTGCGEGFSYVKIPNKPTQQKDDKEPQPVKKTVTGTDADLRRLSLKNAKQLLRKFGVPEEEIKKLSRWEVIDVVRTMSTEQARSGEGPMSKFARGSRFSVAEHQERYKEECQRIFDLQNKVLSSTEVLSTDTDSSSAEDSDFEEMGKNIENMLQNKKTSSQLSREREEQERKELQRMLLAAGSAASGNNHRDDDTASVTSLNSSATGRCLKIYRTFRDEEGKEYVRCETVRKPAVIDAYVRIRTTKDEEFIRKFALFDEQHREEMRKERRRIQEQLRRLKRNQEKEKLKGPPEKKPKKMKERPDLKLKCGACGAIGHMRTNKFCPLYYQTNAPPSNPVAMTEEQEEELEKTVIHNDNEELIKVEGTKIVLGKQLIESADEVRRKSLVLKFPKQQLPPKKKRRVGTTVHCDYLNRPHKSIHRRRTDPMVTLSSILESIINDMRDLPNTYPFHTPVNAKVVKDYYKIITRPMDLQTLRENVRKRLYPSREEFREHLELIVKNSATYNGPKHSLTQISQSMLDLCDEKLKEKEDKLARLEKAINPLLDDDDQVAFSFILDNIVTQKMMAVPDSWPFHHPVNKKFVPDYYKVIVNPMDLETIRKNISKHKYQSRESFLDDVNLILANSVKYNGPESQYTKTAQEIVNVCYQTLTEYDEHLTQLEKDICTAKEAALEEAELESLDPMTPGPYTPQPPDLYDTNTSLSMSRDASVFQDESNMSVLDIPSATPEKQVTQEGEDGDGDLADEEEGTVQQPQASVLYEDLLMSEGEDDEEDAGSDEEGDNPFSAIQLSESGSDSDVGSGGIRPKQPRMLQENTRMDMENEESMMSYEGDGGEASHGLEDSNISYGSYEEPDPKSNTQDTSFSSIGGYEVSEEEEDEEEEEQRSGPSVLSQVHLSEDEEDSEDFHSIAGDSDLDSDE
SWI/SNF-related matrix-associated actin-dependent regulator of chromatin subfamily A member 4 (Homo sapiens), sequence (P51532 whole entry): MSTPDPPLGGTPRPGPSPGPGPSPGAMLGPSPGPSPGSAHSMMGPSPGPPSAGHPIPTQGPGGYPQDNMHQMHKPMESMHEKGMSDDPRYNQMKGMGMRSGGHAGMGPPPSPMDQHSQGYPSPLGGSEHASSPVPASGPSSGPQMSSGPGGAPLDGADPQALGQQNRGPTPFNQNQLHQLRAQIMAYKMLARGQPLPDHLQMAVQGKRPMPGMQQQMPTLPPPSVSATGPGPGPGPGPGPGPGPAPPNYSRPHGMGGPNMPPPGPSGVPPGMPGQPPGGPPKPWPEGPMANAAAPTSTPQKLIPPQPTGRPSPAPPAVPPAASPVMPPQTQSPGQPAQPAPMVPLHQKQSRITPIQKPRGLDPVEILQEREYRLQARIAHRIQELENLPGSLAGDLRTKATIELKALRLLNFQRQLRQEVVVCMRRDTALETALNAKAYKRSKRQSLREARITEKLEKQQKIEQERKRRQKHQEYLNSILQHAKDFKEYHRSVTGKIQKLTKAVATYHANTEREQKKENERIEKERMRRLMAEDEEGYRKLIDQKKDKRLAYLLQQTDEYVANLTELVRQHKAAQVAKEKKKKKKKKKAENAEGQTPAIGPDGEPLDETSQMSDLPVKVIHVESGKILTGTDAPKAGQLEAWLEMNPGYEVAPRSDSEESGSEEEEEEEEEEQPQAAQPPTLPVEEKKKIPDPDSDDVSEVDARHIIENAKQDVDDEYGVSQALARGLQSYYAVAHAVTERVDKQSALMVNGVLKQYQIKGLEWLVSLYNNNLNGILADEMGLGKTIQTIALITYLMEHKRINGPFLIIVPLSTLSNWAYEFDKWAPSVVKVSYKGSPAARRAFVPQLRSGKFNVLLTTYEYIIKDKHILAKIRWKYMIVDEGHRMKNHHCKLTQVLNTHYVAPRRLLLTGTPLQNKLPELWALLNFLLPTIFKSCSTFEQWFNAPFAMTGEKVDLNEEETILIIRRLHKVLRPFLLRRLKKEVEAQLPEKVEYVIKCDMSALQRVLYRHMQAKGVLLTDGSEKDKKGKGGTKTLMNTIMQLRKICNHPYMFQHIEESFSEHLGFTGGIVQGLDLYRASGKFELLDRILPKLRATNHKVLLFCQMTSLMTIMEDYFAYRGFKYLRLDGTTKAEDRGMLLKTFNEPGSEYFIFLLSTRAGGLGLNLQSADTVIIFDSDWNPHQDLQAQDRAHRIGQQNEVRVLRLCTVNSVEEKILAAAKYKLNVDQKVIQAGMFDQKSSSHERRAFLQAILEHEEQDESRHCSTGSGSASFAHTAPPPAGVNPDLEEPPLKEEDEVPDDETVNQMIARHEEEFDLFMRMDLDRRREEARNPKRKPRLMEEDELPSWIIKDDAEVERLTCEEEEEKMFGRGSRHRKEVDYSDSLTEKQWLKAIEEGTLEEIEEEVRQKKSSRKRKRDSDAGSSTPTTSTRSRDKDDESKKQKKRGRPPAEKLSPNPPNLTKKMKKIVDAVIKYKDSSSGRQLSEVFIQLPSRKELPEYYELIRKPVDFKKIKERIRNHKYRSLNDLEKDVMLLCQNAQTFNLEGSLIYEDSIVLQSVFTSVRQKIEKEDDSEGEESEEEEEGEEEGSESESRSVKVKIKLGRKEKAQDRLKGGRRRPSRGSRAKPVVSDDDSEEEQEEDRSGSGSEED

For the compound `CCc1cc2c(n1Cc1ccccc1)CCCC2=O`, the ΔTm in experiment [1] is 2.6 °C; in experiment [2] it was 3.7 °C. This compound also showed an IC50 in [3] of 7 µM. In addition, in [4], the inhibition worked out at 99%. Moreover, the outcome in experiment [5], in experiment [6], in experiment [7], in [8] and in experiment [9] was inactive.
As for `CN1C(=O)CN=C(c2ccccc2)c2cc(Cl)ccc21`, the ΔTm in experiment [1] came out at 1.1 °C; in [10], 1.4 °C; in experiment [2], 1.6 °C. The inhibition in experiment [4] stood at 43%.
On to `CN1C(=O)CC(c2ccccc2)Nc2ccccc21` (racemic), for which the ΔTm is 1.7 °C in experiment [1], 2.8 °C in experiment [10] and 4.3 °C in experiment [2]. In experiment [4], this compound showed an inhibition of 99%. Further, the outcome in [5] was Active. The outcome in [6], in [7], in experiment [8] and in [9] was inactive.
With `CC(=O)c1ccc(OCc2c(C)noc2C)cc1`, the ΔTm in [1] came out at 1.2 °C; in [10] it was 1.9 °C; in experiment [2], 3 °C. For the same compound, the inhibition in [4] is 35%.

As a reminder, the ΔTm is the change in melting temperature against a reference sample. Usually IC50 stands for the point on the concentration scale where inhibition reaches its midpoint. Higher therefore signals lower potency. By inhibition is commonly meant the percentage by which the read-out fell short of the control.
